Patent publication US10183155B2, “Implantable devices and methods for evaluation of active agents” (Kibur Medical, Inc., priority 2011, dated 2019)
Several values for one entry are separate records, joined by “and”; a condition that tells them apart may be missing. Equal values may be shown once.

Key:
A375 tumors [1] = experiment: Local tumor apoptosis (cleaved caspase 3) after systemic dosing in A375 tumors; format: in vivo, mice; details: systemic dosing 8 mg/kg, 24 hours
Procedure: (§1) To compare the efficacy of device delivered doxorubicin to efficacy achieved with systemic delivery, mice bearing A375 or PC3 tumors were systemically administered an 8 mg/kg dose of doxorubicin. Apoptosis, as measured by cleaved caspase 3 expression, was used to evaluate drug efficacy at 24 hours post implantation or systemic dosing.

Ki67 = Ki67 protein expression by immunohistochemistry around device in BT474 tumor; format: in vivo; details: 20 hour exposure, region closest to the microwell
Procedure: (§2) Doxorubicin was loaded into microwells in the device and implanted within a BT474 tumor. After 20 hours, the device and surrounding tissue was removed. Protein expression of cleaved caspase 3 and Poly(ADP-ribose) polymerase (PARP) was evaluated by immunohistochemical analysis. These biomarkers are indicators of apoptosis. Protein expression of Ki67 and survivin was evaluated by immunohistochemical analysis. Ki67 is a biomarker for monitoring reduced cell proliferation rates. Survivin is a biomarker for monitoring reduced inhibition of apoptosis.
(§3) Effect of 20 hour doxorubicin exposure on the expression of the biomarkers was determined as described in Example 4. However, here four concentration gradient regions of approximately 100 μm were determined and evaluated.

MDA-MB231 tumors = experiment: Implantable device assay: apoptosis (cleaved caspase 3) after device delivery in MDA-MB231 tumors; format: in vivo, mice
Procedure: (§4) Lapatinib was loaded into microwells in the implantable device that were preloaded with doxorubicin. The device was then implanted into MDA-MB231 tumors. The device and surrounding tissue was removed 24 hours later and apoptosis was evaluated by cleaved caspase 3 expression using standard immunohistochemical assays.

survivin = experiment: Survivin protein expression by immunohistochemistry around device in BT474 tumor; format: in vivo; details: 20 hour exposure, region closest to the microwell
Procedure: as §2, §3

PC3 tumors [2] = experiment: Implantable device assay: apoptosis (cleaved caspase 3) after device delivery in PC3 tumors; format: in vivo, mice; details: for apoptotic index (AI): device-delivery, 24 hours post implantation
Procedure: (§5) Doxorubicin was loaded into a microwell in the implantable device. The device was implanted into tumor tissue. This was repeated for three different murine human cell tumor models (BT474, PC3, A375). After implantation for 20 hours, the device and surrounding tissue was removed, and embedded in acrylic for cross-sectioning and histopathological analysis.
(§6) Fluorescent imaging techniques were used on sample cross-sections to determine the doxorubicin concentration and diffusion profile within the tissue surrounding the device. Standard histopathological techniques, such as but not limited to, immunochemical techniques, can be used to measure a desired characteristic within the surrounding tissue to determine effectiveness of a compound. In this instance, cleaved caspase 3 antibodies were used to detect cells undergoing apoptosis.
(§7) Murine A375, BT474, or PC3 tumor models were used to determine whether the device measurement of local microdose response is a satisfactory predictor of a systemic response in different tumor models. Doxorubicin was placed within the microwells of implantable devices. The devices were implanted into A375, BT474, or PC3 tumors on mice. Apoptosis, as measured by cleaved caspase 3 expression, was used to evaluate drug efficacy at 24 hours post implantation or systemic dosing.
The implantable device assay was tested in murine tumor models (A375 and PC3) for its ability to predict the response of tumors to several other cytotoxic and targeted anti-cancer agents. Vemurafenib is an enzyme inhibitor that specifically targets the BRAF V600E mutation. A375 tumors have this mutation. […] Response to vemurafenib was measured by intratumor apoptotic response using the implantable device assay.
as §4, with “Sunitinib” for “Lapatinib”, “PC3” for “MDA-MB231”

[3] = Intratumor concentration of doxorubicin after systemic administration; format: in vivo; details: systemic 8 mg/kg, BT474 bearing mice
Procedure: (§8) Doxorubicin was administered systemically at 8 mg/kg to BT474 bearing mice. Intratumor concentration of doxorubicin was analyzed by standard immunohistochemical and fluorescence techniques previously described and standard in the art. Doxorubicin was loaded into microwells in the device. The device was implanted in a BT474 tumor as in Example 7. After 20 hours, the device and surrounding tissue was excised and doxorubicin concentration in the surrounding tumor tissue was analyzed.

BT474 tumors = experiment: Implantable device assay: apoptosis (cleaved caspase 3) after device delivery in BT474 tumors; format: in vivo, mice; details: for apoptotic index (AI): device-delivery, 24 hours post implantation; for increase of apoptosis by addition to microwells preloaded with doxorubicin: 24 hours, vs doxorubicin alone
Procedure: as §5, §6, §7
as §4, with “Sunitinib or lapatinib” for “Lapatinib”, “BT474” for “MDA-MB231”

A375 tumors [4] = experiment: Implantable device assay: apoptosis (cleaved caspase 3) after device delivery in A375 tumors; format: in vivo, mice
Procedure: as §5, §6
Efficacy of doxorubicin at different concentration gradients within the tissue was quantified using a two-step analysis. […]
Second, the effect of the drug on a measurable characteristic in each concentration region is determined. In this example, the amount of cells undergoing apoptosis, as determined by cleaved caspase 3 antibody binding, was evaluated in each doxorubicin concentration region. Efficacy of the doxorubicin released from the microwell is determined by antibody staining of tissue sections divided into regions corresponding to local compound exposure.
Varying percentages (1% and 5% by weight) of doxorubicin was dissolved in PEG having a molecular weight of 1000 or 1450. […] After 20 hours, the device and surrounding tissue was removed and analyzed for doxorubicin concentration and cleaved caspase 3 expression, as previously described.
as §7, with “Doxorubicin was placed within the microwells of implantable devices. The devices were implanted into A375, BT474, or PC3 tumors on mice.” left out, “dosing. […]” for “dosing.”

PC3 tumors [5] = experiment: Local tumor apoptosis (cleaved caspase 3) after systemic dosing in PC3 tumors; format: in vivo, mice; details: systemic dosing 8 mg/kg, 24 hours
Procedure: as §1

[6] = Doxorubicin concentration in tumor tissue surrounding the implanted device (fluorescent imaging); format: in vivo, mice; details: mouse, pure doxorubicin in microwell, 20 hours post implantation
Source text: as §6
Varying percentages (1% and 5% by weight) of doxorubicin was dissolved in PEG having a molecular weight of 1000 or 1450. Pure powder doxorubicin and the PEG-doxorubicin formulations were loaded into microwells in the device. The device was implanted into tumors. After 20 hours, the device and surrounding tissue was removed and analyzed for doxorubicin concentration and cleaved caspase 3 expression, as previously described.
Microwells were loaded with pure doxorubicin and the device was implanted into tumor tissue. The device and surrounding tissue was removed at varying times post-implantation. The concentration of doxorubicin in the surrounding tissue was evaluated using immunohistochemical techniques and fluorescent imaging.
as §8

[7] = device-delivery, single agent, MDA-MB231 tumors

SMILES: COc1cccc2c1C(=O)c1c(O)c3c(c(O)c1C2=O)C[C@@](O)(C(=O)CO)C[C@@H]3O[C@H]1C[C@H](N)[C@H](O)[C@H](C)O1 [doxorubicin]
- local tumor apoptosis, apoptotic index (AI) (A375 tumors [1]): 34.9%
- Ki67 expression (Ki67): undetectable levels
- apoptotic index (AI) (MDA-MB231 tumors; [7]): 7.4%
- Survivin expression (survivin): undetectable
- apoptotic index (AI) (PC3 tumors [2]): 6%
- intratumor doxorubicin concentration, areas of high concentration [3]: 8 to 13 mg/kg
- intratumor doxorubicin concentration, areas of low concentration [3]: 3 to 7 mg/kg
- apoptotic index (AI) (BT474 tumors): 18%
- number of cleaved caspase 3 positive cells as percent area of DAB staining (A375 tumors [4]; 20 hours, A375 compared with BT474 and PC3, approximately 100-250 μm from the microwell): greatest number of cells to undergo apoptosis
- apoptotic index (AI) (A375 tumors [4]; device-delivery, A375 tumors, 24 hours post implantation): 55%
- local tumor apoptosis, apoptotic index (AI) (PC3 tumors [5]): 8.7%
- concentration at 20 h ([6]; 0-130 μm from the microwell): 15000 to 20000 ng/g
- concentration at 20 h ([6]; approximately 130-200 μm from the microwell): 8000 to 13000 ng/g
- concentration at 20 h ([6]; approximately 200-300 μm from the microwell): 3000 to 7000 ng/g

SMILES: Nc1ccn([C@@H]2O[C@H](CO)[C@@H](O)C2(F)F)c(=O)n1 [gemcitabine]
- apoptotic index (AI) (MDA-MB231 tumors; [7]): 21.8%
- apoptotic index (AI) (PC3 tumors [2]): 12.5%
- apoptotic index (AI) (BT474 tumors): 2.0% and 2.6%

SMILES: CS(=O)(=O)CCNCc1ccc(-c2ccc3ncnc(Nc4ccc(OCc5cccc(F)c5)c(Cl)c4)c3c2)o1 [lapatinib]
- elevation of apoptotic response by addition to doxorubicin in the microwells (MDA-MB231 tumors; MDA-MB-231 tumors, 24 hours, vs doxorubicin alone): 140%
- apoptotic index (AI) (MDA-MB231 tumors; lapatinib added to doxorubicin in the microwells, MDA-MB-231 tumors, 24 hours): 17.5%
- increase of apoptosis by addition to microwells preloaded with doxorubicin (BT474 tumors): 355%

SMILES: CCN(CC)CCNC(=O)c1c(C)[nH]c(/C=C2\C(=O)Nc3ccc(F)cc32)c1C [sunitinib]
- increase of apoptosis by addition to microwells preloaded with doxorubicin (PC3 tumors [2]; 24 hours, vs doxorubicin alone): 330%
- increase of apoptosis by addition to microwells preloaded with doxorubicin (BT474 tumors): 66%

SMILES: CC[C@@]1(O)C(=O)OCc2c1cc1n(c2=O)Cc2cc3c(CN(C)C)c(O)ccc3nc2-1 [topotecan]
- apoptotic index (AI) (PC3 tumors [2]): 6.3%
- apoptotic index (AI) (BT474 tumors): 2.2%

SMILES: CCCS(=O)(=O)Nc1ccc(F)c(C(=O)c2c[nH]c3ncc(-c4ccc(Cl)cc4)cc23)c1F [vemurafenib]
- intratumor apoptotic response greater in A375 model as compared to PC3 model (A375 tumors [4]; device-delivery, A375 (BRAF V600E) vs PC3): 250%
